{"source": "patent US20220193171A1", "about": "“PHARMACEUTICAL COMPOSITION COMPRISING MIXTURE EXTRACT OF COPTIS RHIZOME AND SCHIZONEPETA TENUIFOLIA AS ACTIVE INGREDIENT FOR PREVENTION OR TREATMENT OF INFLAMMATORY BOWEL DISEASE” (HELIXMITH CO., LTD, priority 2019, published 2022)", "key": {"DSS-induced colitis mice [1]": {"tested_on": "DSS-induced colitis mice", "experiment": "Comparison of single extracts and mixed extracts in DSS-induced colitis mice (Example 5)", "format": "in vivo, mice (C57BL/6)", "settings": "5-ASA 25 mg/kg orally; 2.5% DSS 5 days", "protocol": "After 8-week-old male mice (C57BL/6) were acclimated for one week or longer, the mice were classified into: a normal group; a DSS administration group, a DSS and distilled water administration group (negative control); a DSS and 5-ASA administration group (positive control group); and a group administered DSS and Coptis Rhizome 100 mg/kg, a group administered DSS and Schizonepeta tenuifolia Briquet 10 mg/kg, and a group administered DSS, Coptis Rhizome 100 mg/kg, and Schizonepeta tenuifolia Briquet 10 mg/kg (mixed extract administration group). The mice were fed 100 mL of DSS diluted in drinking water to 2.5%, which was then changed every two days. After DSS administration for 5 days, drinking water was changed. 5-ASA, used as a drug for the positive control group, was diluted in drinking water to 25 mg/kg, and orally administered. Coptis Rhizome 100 mg/kg, Schizonepeta tenuifolia Briquet 10 mg/kg, and a 10:1 mixture of Coptis Rhizome and Schizonepeta tenuifolia Briquet at a dose of 110 mg/kg were orally administered once/day for 14 days, and the body weight change rate, feces state, and the presence of bloody feces were checked every day."}, "MIP-2": {"tested_on": "MIP-2", "experiment": "Quantitative PCR of MIP-2 expression in colon of DSS-induced colitis mice (Example 6)", "format": "in vivo, mouse", "settings": "relative value vs normal group, GAPDH standard; colon RNA; 5-ASA 25 mg/kg orally", "protocol": "(§1) RNA was isolated from the colon of the mice collected in Example 5 by using TRIzol (Invitrogen, USA). Thereafter, quantitative PCR through primers specific to the inflammatory factors TNF-α, IL-1β, IL-17, IL-23, CCL2, and MIP-2, and SYBR green (Takara, Japan) was performed using cDNA obtained by performing RT-PCR. The expression levels of RNA obtained therefrom were expressed as a relative change compared with the untreated group (normal group) by using GAPDH mRNA as the standard gene. The experimental results are shown in Tables 11 to 16 below and FIGS. 8 to 13."}, "IL-17": {"tested_on": "IL-17", "experiment": "Quantitative PCR of IL-17 expression in colon of DSS-induced colitis mice (Example 6)", "format": "in vivo, mouse", "settings": "relative value vs normal group, GAPDH standard; colon RNA; 5-ASA 25 mg/kg orally", "protocol": "as §1"}, "TNF-α": {"tested_on": "TNF-α", "experiment": "Quantitative PCR of TNF-α expression in colon of DSS-induced colitis mice (Example 6)", "format": "in vivo, mouse", "settings": "relative value vs normal group, GAPDH standard; colon RNA; 5-ASA 25 mg/kg orally", "protocol": "as §1"}, "[2]": {"tested_on": "DSS-induced enteritis model", "experiment": "Effects of single herbal extracts in DSS-induced enteritis model (Example 2)", "format": "in vivo, mice (C57BL/6)", "settings": "5-ASA 25 mg/kg orally once/day for 14 days; 2.5% DSS 5 days", "protocol": "After 8-week-old male mice (C57BL/6) were acclimated for one week or longer, the mice were classified into: a normal group; a DSS and distilled water administration group in which Dextran Sulfate Sodium (DSS; 36,000-50,000 MW, MP Biomedicals, USA) was administered to induce ulcerative colitis and then distilled water was administered (negative control); a DSS and 5-aminosalicylic acid (5-ASA; Tokyo Chemical Industry Co., Japan) administration group (positive control group); and groups in which DSS and respective single herbal extracts prepared in Example 1 were administered (experimental groups).\n(§2) The DSS-induced enteritis model has been known to show similar morphological changes and symptoms to human ulcerative colitis. The mice were fed 100 mL of DSS diluted in drinking water to 2.5%, which was then changed every two days. After the induction by DSS for 5 days, drinking water was changed.\n(§3) 5-ASA, used as a drug for the positive control group, was diluted in drinking water to 25 mg/kg, and administered orally once/day for 14 days from the start date of the experiment. Each single herbal extract was orally administered at a dose of 100 mg/kg once/day for 14 days from the start date of the experiment.\nThe mice of each group were weighed to calculate weight loss rates, and the feces state and the presence of bloody feces were checked, every day after the start of the experiment. Scoring was conducted for the three indicators according to the standards in Table 2 below.\nDisease activity index (DAI), which is the sum calculated according to the scoring standards on Table 2 above, is shown in Table 3 below and FIG. 1.\nOn the last day of the experiment, the mice were sacrificed with carbon dioxide gas, and the colon site was excised. The colon length was measured from the excised colon, and then the state of the intestinal mucosa was investigated by incision in the longitudinal direction.\nThe histological colitis score was calculated by measuring the lengths of the mucosal ulcer site and the damaged mucosal layer in the colon tissue and averaging the values."}, "DSS-induced colitis mice [3]": {"tested_on": "DSS-induced colitis mice", "experiment": "Effects of single herbal extracts with different concentration in DSS-induced colitis mice (Example 4)", "format": "in vivo, mice (C57BL/6)", "settings": "5-ASA 25 mg/kg orally; 2.5% DSS 6 days", "protocol": "After 8-week-old male mice (C57BL/6) were acclimated for one week or longer, the mice were classified into: a normal group; a DSS and distilled water administration group (negative control); a DSS and 5-ASA administration group (positive control group); and groups in which DSS and extracts of four kinds of herbs (Coptis Rhizome, […] Herba, Schizonepeta tenuifolia Briquet, and […] Herba) selected in Example 1 (experimental groups). The mice were fed 100 mL of DSS diluted in drinking water to 2.5%, which was then changed every two days. To evaluate the effects of single herbal extracts with different concentrations, DSS was administered for a total of 6 days, and then drinking water was changed. 5-ASA was distilled in drinking water to 25 mg/kg and orally administered. Each single herbal extract was orally administered at doses of 10, 30, and 100 mg/kg once/day for 14 days from the start date of the experiment, and the body weight change, feces state, and the presence of bloody feces were checked every day. In addition, DAI scores were calculated based on the results of the body weight change, feces state, and the presence of bloody feces, and the results are shown in Table 9 below and FIG. 6."}, "[4]": {"tested_on": "DSS-induced enteritis model", "experiment": "Effects of single and mixed herbal extracts on DSS-induced enteritis model (Example 11)", "format": "in vivo, mice (C57BL/6)", "settings": "5-ASA 25 mg/kg orally once/day for 10 days; 2.5% DSS 5 days", "protocol": "After 8-week-old male mice (C57BL/6) were acclimated for one week or longer, the mice were classified into: a normal group;\na DSS and distilled water administration group in which Dextran Sulfate Sodium (DSS; 36,000-50,000 MW, MP Biomedicals, USA) was administered to induce ulcerative colitis and then distilled water was administered (negative control); a DSS and 5-aminosalicylic acid (5-ASA; Tokyo Chemical Industry Co., Japan) administration group (positive control group); and groups in which together with DSS, Coptis Rhizome and Schizonepeta tenuifolia Briquet extracts prepared in Example 1 and mixed herbal extracts prepared in Example 7 were administered (experimental groups).\nas §2\nas §3, with “10” for “14”, “mixed” for “single”, “50” for “100”\nThe mice of each group were weighed to calculate weight loss rates every day after the start of the experiment.\nIn addition, DAI scores were calculated based on the results of the body weight change, feces state, and the presence of bloody feces, and the results are shown in Table 23 below and FIG. 17.\nOn the last day of the experiment, the mice were sacrificed with carbon dioxide gas, and the colon site was excised."}, "[5]": {"tested_on": "DNBS-induced enteritis model", "experiment": "Effects of single herbal extracts on DNBS-induced enteritis model (Example 3)", "format": "in vivo, mice (C57BL/6)", "settings": "5-ASA 25 mg/kg orally once/day for 5 days; DNBS rectal", "protocol": "After 8-week-old male mice (C57BL/6) were acclimated for one week or longer, the mice were classified into: a normal group; a DNBS and distilled water administration group in which dinitrobenzene sulfonic acid (DNBS; Sigma-Aldrich, USA) was administered to induce inflammatory bowel disease and then distilled water was administered (negative control); a DNBS and 5-ASA administration group (positive control group); and groups in which DNBS and extracts of 11 kinds of herbs (Terminaliae Fructus, Selaginellae Herba, Schizonepeta tenuifolia Briquet, Geranii Herba, Psoraleae Semen, Thujae Orientalis Folium, Coptis Rhizome, Galla Rhois, Ailanthi Radicis Cortex, Puerariae Radix, and Liriopis Tuber) selected in Example 2 (experimental groups).\nThe DNBS-induced enteritis model is known to be closely related with human Crohn's disease in that T cell-mediated immune response is induced. DNBS in 50% ethanol/distilled water at 40 mg/mL was prepared, and 0.1 mL was slowly injected into the rectum of the mouse by using a catheter. 5-ASA, used as a drug for the positive control group, was diluted in drinking water to 25 mg/kg, and administered orally once/day for 5 days from the start date of the experiment. […]\nOn the last day of the experiment, the mice were sacrificed with carbon dioxide gas, and the colon site was excised, and the colon length was measured."}, "IL-1β": {"tested_on": "IL-1β", "experiment": "Quantitative PCR of IL-1β expression in colon of DSS-induced colitis mice (Example 6)", "format": "in vivo, mouse", "settings": "relative value vs normal group, GAPDH standard; colon RNA; 5-ASA 25 mg/kg orally", "protocol": "as §1"}, "IL-23": {"tested_on": "IL-23", "experiment": "Quantitative PCR of IL-23 expression in colon of DSS-induced colitis mice (Example 6)", "format": "in vivo, mouse", "settings": "relative value vs normal group, GAPDH standard; colon RNA; 5-ASA 25 mg/kg orally", "protocol": "as §1"}, "CCL2": {"tested_on": "CCL2", "experiment": "Quantitative PCR of CCL2 expression in colon of DSS-induced colitis mice (Example 6)", "format": "in vivo, mouse", "settings": "relative value vs normal group, GAPDH standard; colon RNA; 5-ASA 25 mg/kg orally", "protocol": "as §1"}}, "data": [{"molecule": "Nc1ccc(O)c(C(=O)O)c1", "note": "[Positive control, 5-aminosalicylic acid]", "values": [{"measurement": "DAI score of Day 10", "setting": "DSS-induced colitis mice [1]", "result": 2.8}, {"measurement": "MIP-2 expression level", "setting": "MIP-2", "result": 1.86}, {"measurement": "IL-17 expression level", "setting": "IL-17", "result": 1.77}, {"measurement": "TNF-α expression level", "setting": "TNF-α", "result": 2.16}, {"measurement": "Colon length (cm)", "setting": "[2]", "result": 5.6, "unit": "cm"}, {"measurement": "DAI score of Day 10", "setting": "[2]", "result": 2.4}, {"measurement": "Histological colitis score", "setting": "[2]", "result": 1.00}, {"measurement": "Body weight change rate for 14 days (%)", "setting": "DSS-induced colitis mice [3]", "result": "−19.38", "unit": "%"}, {"measurement": "DAI score of Day 10", "setting": "DSS-induced colitis mice [3]", "result": 4.8}, {"measurement": "Body weight change rate for 10 days (%)", "setting": "[4]", "result": "−11.66", "unit": "%"}, {"measurement": "Colon length (cm)", "setting": "[4]", "result": 7.04, "unit": "cm"}, {"measurement": "DAI score of DAY 10", "setting": "[4]", "result": 4.8}, {"measurement": "Colon length (cm)", "setting": "[5]", "result": 7.10, "unit": "cm"}, {"measurement": "Survival rate (%)", "setting": "[5]", "result": 60, "unit": "%"}, {"measurement": "IL-1β expression level", "setting": "IL-1β", "result": 2.28}, {"measurement": "IL-23 expression level", "setting": "IL-23", "result": 1.65}, {"measurement": "CCL2 expression level", "setting": "CCL2", "result": 3.26}]}]}
